Like-named read-outs stand apart in the source and are kept apart here. Values belong to the compound of their own block, whether it stands above or below them.
What was measured:
[1] = system: transplanted tumor of human non-small cell lung cancer cell H1299
Description: (§1) Then cell concentration was adjusted to 1×10^7/ml with matrigel, then each nude mouse was inoculated subcutaneously with 0.2 ml of cells at its right armpit and recorded as the first day of inoculation. When the tumor grows to be greater than or equal to 100 mm^3, the mice were randomly divided into 11 groups with 6 mice in each group: isovaleryl spiramycin I groups with doses of 25, 50 and 100 mg/kg, isovaleryl spiramycin II groups with doses of 25, 50 and 100 mg/kg, and isovaleryl spiramycin III groups with doses of 25, 50 and 100 mg/kg. Each group was continuously administered intragastrically for 30 days with a dose of 20 ml/kg. The mice were sacrificed the next day after drug withdrawal and the indicators were tested. The long diameter and short diameter of the tumor, and the body weight of each mouse were recorded every 3 days from drug administration to nude mouse sacrifice.
(§2) The body weight of the nude mice and the long diameter (a) and short diameter (b) of the transplanted tumor were measured every 3 days, and the tumor volume (v), relative tumor volume (RTV) and relative tumor proliferation rate (T/C) are calculated respectively according to the following formulas, wherein V=a×b^2/2; RTV=V/V0 (V0 is the tumor volume before administration, V is the tumor volume before sacrifice), and T/C (%)=treatment group RTV/model control group RTV×100%.
(§3) Each mouse was weighed and sacrificed. After the tumor was completely stripped off from the body of the mouse, the non-tumor tissues such as blood stains and fat were removed to weigh the tumor and calculate the tumor growth inhibition rate. The average tumor weight of each group of mice is used as an indicator of efficacy. Tumor growth inhibition rate (%)=(1−the average tumor weight of the treatment group/the average tumor weight of the model group)×100%.

[2] = system: transplanted tumor of human renal clear cell adenocarcinoma cell 786-O; assay: 786-O transplanted tumor in nude mice
Description: as §1, with “786-O cells in a logarithmic growth phase were taken and subjected to a trypan blue exclusion experiment showing that the cell viability was more than 95%, then the cells were subjected to trypsinization, centrifugation, and supernatant removal. Then” for “Then”, “group: a model group, a cyclophosphamide group,” for “group:”
as §2, §3

[3] = system: transplanted tumor of human glioblastoma cell A172; conditions: for Tumor Volume (mm3) (d 1): d1
Description: as §1, with “a model group, a temozolomide group, […], […], […]” for “isovaleryl spiramycin I groups with doses of 25, 50 and 100 mg/kg, isovaleryl spiramycin II groups with doses of 25, 50 and 100 mg/kg, and isovaleryl spiramycin III groups with doses of 25, 50 and 100 mg/kg.”
as §2, §3

[4] = H1299, 25 mg/kg (low dose) i.g. 30 days
[5] = H1299, 50 mg/kg (medium dose) i.g. 30 days
[6] = H1299, 100 mg/kg (high dose) i.g. 30 days
[7] = A172, high dose (100 mg/kg in method) i.g. 30 days
[8] = A172, low dose (25 mg/kg in method) i.g. 30 days
[9] = A172, medium dose (50 mg/kg in method) i.g. 30 days
[10] = 786-O, high dose (100 mg/kg in method) i.g. 30 days
[11] = 786-O, low dose (25 mg/kg in method) i.g. 30 days
[12] = 786-O, medium dose (50 mg/kg in method) i.g. 30 days

Compound: O=P1(N(CCCl)CCCl)NCCCO1 (stereo not shown) [Cyclophosphamide, cyclophosphamide, reference compound]
- Body Weight (d 1) ([1]; H1299, 30 mg/kg i.g. 30 days): 21.83 ± 0.33 g
- Body Weight (d 30) ([1]; H1299, 30 mg/kg i.g. 30 days): 23.72 ± 2.41 g
- Inhibition Rate (tumor growth inhibition rate) ([1]; H1299, 30 mg/kg i.g. 30 days): 78.00%
- Relative Tumor Proliferation Rate (T/C) ([1]; H1299, 30 mg/kg i.g. 30 days): 22.72%
- Relative Tumor Volume (RTV) ([1]; H1299, 30 mg/kg i.g. 30 days): 2.91 ± 0.95
- Tumor Volume (d 1) ([1]; H1299, 30 mg/kg i.g. 30 days): 135.46 ± 16.48 mm3
- Tumor Volume (d 30) ([1]; H1299, 30 mg/kg i.g. 30 days): 384.21 ± 106.99 mm3
- Tumor Weight ([1]; H1299, 30 mg/kg i.g. 30 days): 0.38 ± 0.08 g
- Inhibition Rate (%) ([2]; 786-O nude mice, 30 mg/kg): 70.51%
- Relative Tumor Proliferation Rate (T/C) ([2]; 786-O nude mice, 30 mg/kg): 37.41%
- Relative Tumor Volume (RTV) ([2]; 786-O nude mice, 30 mg/kg): 6.76 ± 0.79
- Tumor Weight ([2]; 786-O nude mice, 30 mg/kg): 0.63 ± 0.04 g
- Body Weight (g) (d1) ([2]; 786-O nude mice, 30 mg/kg, d1): 21.58 ± 0.81 g
- Tumor Volume (mm3) (d 1) ([2]; 786-O nude mice, 30 mg/kg, d1): 108.64 ± 14.40 mm3
- Body Weight (g) (d30) ([2]; 786-O nude mice, 30 mg/kg, d30): 19.42 ± 0.67 g
- Tumor Volume (mm3) (d30) ([2]; 786-O nude mice, 30 mg/kg, d30): 734.23 ± 24.66 mm3

- mouse weight compared with the model group ([1]; mouse, in vivo): no significant changes
- mouse weight compared with the model group ([3]; mouse, in vivo): no significant changes
- mouse weight compared with the model group ([2]; mouse, in vivo): no significant changes
Compound: CO[C@@H]1[C@@H](O[C@@H]2O[C@H](C)[C@@H](O[C@H]3C[C@@](C)(O)[C@@H](OC(=O)CC(C)C)[C@H](C)O3)[C@H](N(C)C)[C@H]2O)[C@@H](CC=O)C[C@@H](C)[C@@H](O[C@H]2CC[C@H](N(C)C)[C@@H](C)O2)/C=C/C=C/C[C@@H](C)OC(=O)C[C@H]1O [Isovaleryl spiramycin I, isovaleryl spiramycin I]
- Inhibition Rate (tumor growth inhibition rate) [1, 4]: 22.11%
- Relative Tumor Proliferation Rate (T/C) [1, 4]: 89.42%
- Relative Tumor Volume (RTV) [1, 4]: 11.46 ± 3.83
- Tumor Volume (d 1) [1, 4]: 136.07 ± 17.13 mm3
- Tumor Volume (d 30) [1, 4]: 1513.14 ± 387.19 mm3
- Tumor Weight [1, 4]: 1.36 ± 0.33 g
- Inhibition Rate (tumor growth inhibition rate) [1, 5]: 43.83%
- Relative Tumor Proliferation Rate (T/C) [1, 5]: 49.81%
- Relative Tumor Volume (RTV) [1, 5]: 6.39 ± 1.01
- Tumor Volume (d 1) [1, 5]: 135.51 ± 20.47 mm3
- Tumor Volume (d 30) [1, 5]: 861.71 ± 164.32 mm3
- Tumor Weight [1, 5]: 0.98 ± 0.27 g
- Inhibition Rate (tumor growth inhibition rate) [1, 6]: 69.95%
- Relative Tumor Proliferation Rate (T/C) [1, 6]: 27.43%
- Relative Tumor Volume (RTV) [1, 6]: 3.52 ± 0.68
- Tumor Volume (d 1) [1, 6]: 137.34 ± 22.95 mm3
- Tumor Volume (d 30) [1, 6]: 470.36 ± 21.77 mm3
- Tumor Weight [1, 6]: 0.52 ± 0.21 g
- tumor volume and relative tumor volume compared with the model group ([1]; H1299, low, medium and high doses, P<0.05): significantly lower
- Relative Tumor Proliferation Rate (T/C) [3, 7]: 25.16%
- tumor growth inhibition rate [3, 7]: 68.79%
- Relative Tumor Proliferation Rate (T/C) [3, 8]: 74.49%
- tumor growth inhibition rate [3, 8]: 30.75%
- tumor volume and relative tumor volume compared with the model group ([3]; A172, low, medium and high doses, P<0.05): significantly lower
- Relative Tumor Proliferation Rate (T/C) [3, 9]: 43.43%
- tumor growth inhibition rate [3, 9]: 44.26%
- Inhibition Rate (%) ([3]; A172 nude mice, 12.5 mg/kg): 30.75%
- Relative Tumor Proliferation Rate (T/C) ([3]; A172 nude mice, 12.5 mg/kg): 74.49%
- Relative Tumor Volume (RTV) ([3]; A172 nude mice, 12.5 mg/kg): 12.69 ± 1.08
- Tumor Weight ([3]; A172 nude mice, 12.5 mg/kg): 0.96 ± 0.08 g
- Tumor Volume (mm3) (d 1) ([3]; A172 nude mice, 12.5 mg/kg): 120.36 ± 10.15 mm3
- Tumor Volume (mm3) (d30) ([3]; A172 nude mice, 12.5 mg/kg): 1519.32 ± 71.53 mm3
- Inhibition Rate (%) ([3]; A172 nude mice, 25 mg/kg): 44.26%
- Relative Tumor Proliferation Rate (T/C) ([3]; A172 nude mice, 25 mg/kg): 43.43%
- Relative Tumor Volume (RTV) ([3]; A172 nude mice, 25 mg/kg): 10.67 ± 1.08
- Tumor Weight ([3]; A172 nude mice, 25 mg/kg): 0.77 ± 0.09 g
- Tumor Volume (mm3) (d 1) ([3]; A172 nude mice, 25 mg/kg): 121.90 ± 10.10 mm3
- Tumor Volume (mm3) (d30) ([3]; A172 nude mice, 25 mg/kg): 889.01 ± 195.61 mm3
- Inhibition Rate (%) ([3]; A172 nude mice, 50 mg/kg): 68.79%
- Relative Tumor Proliferation Rate (T/C) ([3]; A172 nude mice, 50 mg/kg): 25.16%
- Relative Tumor Volume (RTV) ([3]; A172 nude mice, 50 mg/kg): 10.05 ± 0.71
- Tumor Weight ([3]; A172 nude mice, 50 mg/kg): 0.43 ± 0.07 g
- Tumor Volume (mm3) (d 1) ([3]; A172 nude mice, 50 mg/kg): 122.38 ± 6.44 mm3
- Tumor Volume (mm3) (d30) ([3]; A172 nude mice, 50 mg/kg): 513.12 ± 89.49 mm3
- Body Weight (g) (d1) ([3]; mouse, in vivo, 12.5 mg/kg): 21.06 ± 0.43 g
- Body Weight (g) (d30) ([3]; mouse, in vivo, 12.5 mg/kg): 20.34 ± 0.17 g
- Body Weight (g) (d1) ([3]; mouse, in vivo, 25 mg/kg): 20.98 ± 0.73 g
- Body Weight (g) (d30) ([3]; mouse, in vivo, 25 mg/kg): 20.93 ± 0.54 g
- Body Weight (g) (d1) ([3]; mouse, in vivo, 50 mg/kg): 21.00 ± 0.65 g
- Body Weight (g) (d30) ([3]; mouse, in vivo, 50 mg/kg): 20.88 ± 0.58 g
- Inhibition Rate (%) ([2]; 786-O nude mice, 25 mg/kg): 34.70%
- Relative Tumor Proliferation Rate (T/C) ([2]; 786-O nude mice, 25 mg/kg): 37.88%
- Relative Tumor Volume (RTV) ([2]; 786-O nude mice, 25 mg/kg): 6.99 ± 0.83
- Tumor Weight ([2]; 786-O nude mice, 25 mg/kg): 1.40 ± 0.40 g
- Tumor Volume (mm3) (d 1) ([2]; 786-O nude mice, 25 mg/kg, d1): 96.85 ± 9.98 mm3
- Tumor Volume (mm3) (d30) ([2]; 786-O nude mice, 25 mg/kg, d30): 677.21 ± 58.76 mm3
- Inhibition Rate (%) ([2]; 786-O nude mice, 50 mg/kg): 39.22%
- Relative Tumor Proliferation Rate (T/C) ([2]; 786-O nude mice, 50 mg/kg): 37.19%
- Relative Tumor Volume (RTV) ([2]; 786-O nude mice, 50 mg/kg): 6.86 ± 1.01
- Tumor Weight ([2]; 786-O nude mice, 50 mg/kg): 1.31 ± 0.35 g
- Tumor Volume (mm3) (d 1) ([2]; 786-O nude mice, 50 mg/kg, d1): 96.82 ± 8.52 mm3
- Tumor Volume (mm3) (d30) ([2]; 786-O nude mice, 50 mg/kg, d30): 664.44 ± 73.49 mm3
- Inhibition Rate (%) ([2]; 786-O nude mice, 100 mg/kg): 64.36%
- Relative Tumor Proliferation Rate (T/C) ([2]; 786-O nude mice, 100 mg/kg): 36.87%
- Relative Tumor Volume (RTV) ([2]; 786-O nude mice, 100 mg/kg): 6.81 ± 0.31
- Tumor Weight ([2]; 786-O nude mice, 100 mg/kg): 0.76 ± 0.13 g
- Tumor Volume (mm3) (d 1) ([2]; 786-O nude mice, 100 mg/kg, d1): 103.25 ± 9.71 mm3
- Tumor Volume (mm3) (d30) ([2]; 786-O nude mice, 100 mg/kg, d30): 702.74 ± 37.66 mm3
- Relative Tumor Proliferation Rate (T/C) [2, 10]: 36.89%
- tumor growth inhibition rate [2, 10]: 64.36%
- Relative Tumor Proliferation Rate (T/C) [2, 11]: 37.88%
- tumor growth inhibition rate [2, 11]: 34.70%
- tumor volume and relative tumor volume compared with the model group ([2]; 786-O, low, medium and high doses, P<0.05): significantly lower
- Relative Tumor Proliferation Rate (T/C) [2, 12]: 37.19%
- tumor growth inhibition rate [2, 12]: 39.22%
- Body Weight (g) (d1) ([2]; mouse, in vivo, 25 mg/kg): 21.87 ± 0.89 g
- Body Weight (g) (d30) ([2]; mouse, in vivo, 25 mg/kg): 22.95 ± 0.88 g
- Body Weight (g) (d1) ([2]; mouse, in vivo, 50 mg/kg): 22.00 ± 0.94 g
- Body Weight (g) (d30) ([2]; mouse, in vivo, 50 mg/kg): 22.82 ± 0.64 g
- Body Weight (g) (d1) ([2]; mouse, in vivo, 100 mg/kg): 21.88 ± 0.54 g
- Body Weight (g) (d30) ([2]; mouse, in vivo, 100 mg/kg): 23.00 ± 0.67 g

— patent US20200163984A1, “USE OF ISOVALERYL SPIRAMYCIN I, II AND/OR III IN MANUFACTURING MEDICAMENT FOR TREATING AND/OR PREVENTING TUMOR, AND MEDICAMENT” (SHENYANG FUYANG PHARMACEUTICAL TECHNOLOGY CO., LTD., priority 2017, published 2020)
